# Target: T1, full-length human PKCι (Homo sapiens, UniProt P41743)
# T1 construct: Recombinant, full-length human PKCι expressed in Sf21 insect cells is also commercially available; purchased; host or cells: Sf21 insect cells
# T1 sequence (P41743 1-596): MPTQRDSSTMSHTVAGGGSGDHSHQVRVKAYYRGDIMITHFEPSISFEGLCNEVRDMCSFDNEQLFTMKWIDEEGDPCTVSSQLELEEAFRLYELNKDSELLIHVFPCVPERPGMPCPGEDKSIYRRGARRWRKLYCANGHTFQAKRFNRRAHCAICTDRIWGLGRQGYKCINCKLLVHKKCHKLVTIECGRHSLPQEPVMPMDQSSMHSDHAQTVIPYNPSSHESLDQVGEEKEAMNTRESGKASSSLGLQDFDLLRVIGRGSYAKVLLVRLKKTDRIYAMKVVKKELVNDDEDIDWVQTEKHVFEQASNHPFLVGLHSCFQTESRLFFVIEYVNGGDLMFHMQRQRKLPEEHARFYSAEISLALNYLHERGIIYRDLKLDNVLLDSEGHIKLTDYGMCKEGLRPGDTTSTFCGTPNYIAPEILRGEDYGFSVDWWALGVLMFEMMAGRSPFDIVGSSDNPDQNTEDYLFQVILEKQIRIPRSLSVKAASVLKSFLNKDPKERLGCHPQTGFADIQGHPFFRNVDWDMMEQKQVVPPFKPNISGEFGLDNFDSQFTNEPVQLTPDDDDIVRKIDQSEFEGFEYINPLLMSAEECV
# Test: PKCι IC50 IMAP fluorescence polarisation assay, full-length enzyme
# Assay type: biochemical
# Conditions: full length PKCi at 15 μM ATP; read-out: IC50 in IMAP assay against full length PKCi
row,IC50,Compound
1,1000 to 10000 nM,"N[C@H](CNc1nc(-c2ccncc2F)nc2ccsc12)Cc1ccccc1 [compound 355, (S)-N*1*-[2-(3-Fluoro-pyridin-4-yl)-thieno[3,2-d]pyrimidin-4-yl]-3-phenyl-propane-1,2-diamine]"
2,10000 to 40000 nM,"CC(C)(C)c1ccc(-c2cc3nc(-c4ccncc4)nc(N4CCNCC4)c3s2)cc1 [compound 357, 6-(4-tert-Butyl-phenyl)-4-piperazin-1-yl-2-pyridin-4-yl-thieno[3,2-d]pyrimidine]"
3,10000 to 40000 nM,"Cc1nc(C)c(-c2c(C)sc3c(NC[C@@H](N)Cc4ccccc4)nc(-c4ccncc4)nc23)s1 [compound 457, (S)-N*1*-[7-(2,4-Dimethyl-thiazol-5-yl)-6-methyl-2-pyridin-4-yl-thieno[3,2-d]pyrimidin-4-yl]-3-phenyl-propane-1,2-diamine]"
4,< 100 nM,"N[C@H](CNc1nc(-c2ccncc2)nc2c(-c3ccn[nH]3)csc12)Cc1ccccc1 [compound 390, (S)-3-Phenyl-N*1*-[7-(2H-pyrazol-3-yl)-2-pyridin-4-yl-thieno[3,2-d]pyrimidin-4-yl]-propane-1,2-diamine]"
5,1000 to 10000 nM,"Cc1sc2c(NCC(C)N)nc(-c3ccncc3)nc2c1Br (stereo in doubt) [compound 330, (R)-N*1*-(7-Bromo-6-methyl-2-pyridin-4-yl-thieno[3,2-d]pyrimidin-4-yl)-propane-1,2-diamine]"
6,< 100 nM,"N[C@H](CNc1nc(-c2ccncc2F)nc2c(-c3cc[nH]n3)csc12)Cc1ccccc1 [compound 416, (S)-N*1*-[2-(3-Fluoro-pyridin-4-yl)-7-(1H-pyrazol-3-yl)-thieno[3,2-d]pyrimidin-4-yl]-3-phenyl-propane-1,2-diamine]"
7,10000 to 40000 nM,"Brc1csc2c(NC[C@@H]3CCCN3)nc(-c3ccncc3)nc12 [compound 341, (7-Bromo-2-pyridin-4-yl-thieno[3,2-d]pyrimidin-4-yl)-(S)-1-pyrrolidin-2-ylmethyl-amine]"
8,< 100 nM,CC[C@H](O)C#Cc1csc2c(NC[C@@H](N)Cc3ccccc3)nc(-c3ccncc3)nc12 [compound 521]
9,1000 to 10000 nM,"Cc1noc(C)c1-c1csc2c(NC[C@@H](N)Cc3ccccc3)nc(-c3ccncc3)nc12 [compound 392, N*1*-[7-(3,5-Dimethyl-isoxazol-4-yl)-2-pyridin-4-yl-thieno[3,2-d]pyrimidin-4-yl]-3-phenyl-propane-1,2-diamine]"
10,100 to 1000 nM,"Cc1ccc(Nc2cc(-c3nc(N[C@@H]4CCNC4)c4sccc4n3)ccn2)nn1 [compound 588, {2-[2-(6-Methyl-pyridazin-3-ylamino)-pyridin-4-yl]-thieno[3,2-d]pyrimidin-4-yl}-(R)-pyrrolidin-3-yl-amine]"
11,1000 to 10000 nM,"NC(CNc1nc(-c2ccncc2F)nc2c(-c3ccncc3)csc12)Cc1ccccc1 (stereo in doubt) [compound 429, (R)-N*1*-[2-(3-Fluoro-pyridin-4-yl)-7-pyridin-4-yl-thieno[3,2-d]pyrimidin-4-yl]-3-phenyl-propane-1,2-diamine]"
12,100 to 1000 nM,"CC(C)C#Cc1csc2c(NC[C@@H](N)Cc3ccccc3)nc(-c3ccncc3)nc12 [compound 518, (S)-N*1*-[7-(3-Methyl-but-1-ynyl)-2-pyridin-4-yl-thieno[3,2-d]pyrimidin-4-yl]-3-phenyl-propane-1,2-diamine]"
13,10000 to 40000 nM,"CC(C)(C)c1sc2c(NC[C@@H](N)Cc3ccccc3)nc(-c3ccncc3)nc2c1-c1ccoc1 [compound 445, (S)-N*1*-(6-tert-Butyl-7-furan-3-yl-2-pyridin-4-yl-thieno[3,2-d]pyrimidin-4-yl)-3-phenyl-propane-1,2-diamine]"
14,100 to 1000 nM,"NCCNc1nc(-c2ccncc2)nc2c(Br)csc12 [compound 349, N*1*-(7-Bromo-2-pyridin-4-yl-thieno[3,2-d]pyrimidin-4-yl)-ethane-1,2-diamine]"
15,< 100 nM,"N[C@H](CNc1nc(-c2ccncc2F)nc2c(Br)csc12)Cc1ccccc1 [compound 304, (S)—N*1*-[7-Bromo-2-(3-fluoro-pyridin-4-yl)-thieno[3,2-d]pyrimidin-4-yl]-3-phenyl-propane-1,2-diamine]"
16,1000 to 10000 nM,"CC(C)Cn1cc(-c2csc3c(NC[C@@H](N)Cc4ccccc4)nc(-c4ccncc4)nc23)cn1 [compound 394, (S)-N*1*-[7-(1-Isobutyl-1H-pyrazol-4-yl)-2-pyridin-4-yl-thieno[3,2-d]pyrimidin-4-yl]-3-phenyl-propane-1,2-diamine]"
17,100 to 1000 nM,"N[C@H](CNc1nc(-c2ccncc2F)nc2c(C#CCCO)csc12)Cc1ccccc1 [compound 501, 4-[4-((S)-2-Amino-3-phenyl-propylamino)-2-(3-fluoro-pyridin-4-yl)-thieno[3,2-d]pyrimidin-7-yl]-but-3-yn-1-ol]"
18,1000 to 10000 nM,"c1cc(-c2nc(N[C@@H]3CCNC3)c3sccc3n2)ccn1 [compound 317, (2-Pyridin-4-yl-thieno[3,2-d]pyrimidin-4-yl)-(R)-pyrrolidin-3-yl-amine]"
19,< 100 nM,"CNC(=O)c1csc2c(NC[C@@H](N)Cc3ccccc3)nc(-c3ccncc3)nc12 [compound 553, 4-((S)-2-Amino-3-phenyl-propylamino)-2-pyridin-4-yl-thieno[3,2-d]pyrimidine-7-carboxylic acid methylamide]"
20,1000 to 10000 nM,"NCc1coc(-c2csc3c(NC[C@@H](N)Cc4ccccc4)nc(-c4ccncc4F)nc23)c1 [compound 435, S)-N*1*-[7-(4-Aminomethyl-furan-2-yl)-2-(3-fluoro-pyridin-4-yl)-thieno[3,2-d]pyrimidin-4-yl]-3-phenyl-propane-1,2-diamine]"
21,100 to 1000 nM,"Cc1ccsc1-c1csc2c(NC[C@@H](N)Cc3ccccc3)nc(-c3ccncc3)nc12 [compound 396, (S)-N*1*-[7-(3-Methyl-thiophen-2-yl)-2-pyridin-4-yl-thieno[3,2-d]pyrimidin-4-yl]-3-phenyl-propane-1,2-diamine]"

# Same assay, conditions: full length PKCi at 15 μM ATP; read-out: IC50 in IMAP assay against full length PKCi (Activity)
row,IC50,Compound
1,1000 to 10000 nM,"N[C@@H](CNc1nc(-c2ccncc2)nc2sc3c(c12)CCSC3)Cc1ccccc1 [compound 81, (R)-3-Phenyl-N*1*-(2-pyridin-4-yl-5,8-dihydro-6H-thiopyrano[4′,3′:4,5]thieno[2,3-d]pyrimidin-4-yl)-propane-1,2-diamine]"
2,100 to 1000 nM,"COc1ccc(C[C@H](N)CNc2nc(-c3ccncc3)nc3sc4c(c23)CCCC4)cc1 [compound 47, (S)-3-(4-Methoxy-phenyl)-N*1*-(2-pyridin-4-yl-5,6,7,8-tetrahydro-benzo[4,5]thieno[2,3-d]pyrimidin-4-yl)-propane-1,2-diamine]"
3,10000 to 40000 nM,"COc1ccccc1C[C@H](N)CNc1nc(-c2ccncc2)nc2sc3c(c12)CCSC3 [compound 64, (S)-3-(2-Methoxy-phenyl)-N*1*-(2-pyridin-4-yl-5,8-dihydro-6H-thio-pyrano[4′,3′:4,5]thieno[2,3-d]pyrimidin-4-yl)-propane-1,2-diamine]"
4,1000 to 10000 nM,"COc1ccccc1C[C@H](N)CNc1nc(-c2ccncc2)nc2sc3c(c12)CCCC3 [compound 49, (S)-3-(2-methoxy-phenyl)-N*1*-(2-pyridin-4-yl-5,6,7,8-tetrahydro-benzo[4,5]thieno[2,3-d]pyrimidin-4-yl)-propane-1,2-diamine]"
5,1000 to 10000 nM,"N[C@H](CNc1nc(-c2ccncc2O)nc2sc3c(c12)CCCC3)Cc1ccccc1 [compound 103, 4-[4-((S)-2-Amino-3-phenyl-propylamino)-5,6,7,8-tetrahydro-benzo[4,5]thieno[2,3-d]pyrimidin-2-yl]-pyridin-3-ol]"
